Experimental data reported in article PMC5522529, “Mechanisms of Paradoxical Activation of AMPK by the Kinase Inhibitors SU6656 and Sorafenib” (Cell Chemical Biology, 2017).

Columns and labels:
[1] = test system: purified rat liver AMPK; experiment: Kinase assay of purified rat liver AMPK at 2 mM ATP; format: biochemical; details: ± 1 mM AMP
[2] = target: T1, α2-KD A156T (AT) mutant (Homo sapiens, UniProt P54646, A156T); experiment: Inhibition of phosphorylated α2 kinase domain, A156T (AT) mutant; format: biochemical
T1 construct: amplifying residues 1-310 with 5' BamH1 and 3' Xho1 sites; made in house; host or cells: bacteria
T1 sequence (P54646 1-310 A156T): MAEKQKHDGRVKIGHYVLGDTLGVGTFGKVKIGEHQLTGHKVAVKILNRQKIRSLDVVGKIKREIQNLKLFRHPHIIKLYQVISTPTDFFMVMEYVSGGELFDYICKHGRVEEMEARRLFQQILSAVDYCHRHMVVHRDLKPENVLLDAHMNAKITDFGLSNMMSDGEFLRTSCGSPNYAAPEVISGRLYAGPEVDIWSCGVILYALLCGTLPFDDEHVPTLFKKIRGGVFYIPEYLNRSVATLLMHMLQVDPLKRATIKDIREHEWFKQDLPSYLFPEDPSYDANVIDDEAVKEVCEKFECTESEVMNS

[3] = target: T2, LKB1 (Homo sapiens, UniProt Q15831); experiment: LKB1 assay using LKBtide peptide substrate; format: biochemical; details: alternative peptide substrate (LKBtide)
T2 construct: made in house; host or cells: Sf9 cells
T2 sequence (Q15831 whole entry): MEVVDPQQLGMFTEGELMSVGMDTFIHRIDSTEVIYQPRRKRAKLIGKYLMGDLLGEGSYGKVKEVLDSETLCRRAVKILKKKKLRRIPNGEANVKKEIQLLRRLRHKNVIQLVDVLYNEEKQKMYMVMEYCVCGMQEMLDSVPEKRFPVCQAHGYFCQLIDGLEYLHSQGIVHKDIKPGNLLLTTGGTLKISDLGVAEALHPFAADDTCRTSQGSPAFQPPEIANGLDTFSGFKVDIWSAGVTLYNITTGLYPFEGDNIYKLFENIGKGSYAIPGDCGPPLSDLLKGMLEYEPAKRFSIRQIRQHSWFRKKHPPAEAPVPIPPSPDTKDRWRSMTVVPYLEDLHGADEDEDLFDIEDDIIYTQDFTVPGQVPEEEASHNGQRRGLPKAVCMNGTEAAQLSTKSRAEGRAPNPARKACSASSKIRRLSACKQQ
T2 sequence (Q7RTN6 whole entry partner): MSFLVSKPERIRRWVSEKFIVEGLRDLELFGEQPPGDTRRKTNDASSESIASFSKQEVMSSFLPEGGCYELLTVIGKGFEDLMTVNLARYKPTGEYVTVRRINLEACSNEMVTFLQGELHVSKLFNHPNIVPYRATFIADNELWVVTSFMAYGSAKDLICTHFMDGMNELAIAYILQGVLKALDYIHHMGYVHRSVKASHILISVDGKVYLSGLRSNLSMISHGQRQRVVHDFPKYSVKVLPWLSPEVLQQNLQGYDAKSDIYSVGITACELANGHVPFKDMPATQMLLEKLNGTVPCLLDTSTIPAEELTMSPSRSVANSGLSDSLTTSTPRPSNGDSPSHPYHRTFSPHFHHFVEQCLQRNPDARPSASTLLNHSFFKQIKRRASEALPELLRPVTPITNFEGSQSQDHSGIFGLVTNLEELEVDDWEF
T2 sequence (Q9Y376 whole entry partner): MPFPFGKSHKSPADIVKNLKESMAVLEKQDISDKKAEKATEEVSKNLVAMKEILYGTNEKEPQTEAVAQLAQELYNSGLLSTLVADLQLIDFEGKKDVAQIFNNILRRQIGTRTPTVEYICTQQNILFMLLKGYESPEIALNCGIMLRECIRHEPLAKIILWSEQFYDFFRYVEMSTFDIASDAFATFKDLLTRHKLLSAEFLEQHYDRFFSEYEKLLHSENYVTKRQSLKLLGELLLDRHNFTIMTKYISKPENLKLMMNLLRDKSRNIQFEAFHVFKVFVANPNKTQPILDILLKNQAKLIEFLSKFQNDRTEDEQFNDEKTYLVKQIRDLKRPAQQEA
Description: We next used unphosphorylated α2-KD and tested the effect of SU6656 on its activation and phosphorylation by LKB1. […] There was no effect of SU6656 when LKB1 was assayed using an alternative peptide substrate (Figure S3), confirming that it acts by binding to AMPK rather than to LKB1. The half-maximal effect of SU6656 on α2-KD activation was at 0.20 ± 0.02 μM, close to the IC50 for inhibition of catalytic activity (0.22 ± 0.02 μM).
Endogenous AMPK was immunoprecipitated using the specified antibodies (for total AMPK, an equal mixture of anti-α1 and –α2 antibodies) and assayed at 200 μM ATP ([Hardie et al., 2000], [Towler et al., 2008]) using the AMARA peptide ([Dale et al., 1995]) as substrate, except for assays of allosteric activation by AMP (Figure 5A) where the SAMS peptide was used as substrate with 2 mM ATP ([Gowans et al., 2013]). The AMPK-related kinases SIK1, SIK2, SIK3, SNARK, MARK2/3 and MARK4 were immunoprecipitated and assayed as previously described ([Lizcano et al., 2004]) in lysates of Hela cells stably expressing LKB1 ([Fogarty et al., 2010]). LKB1 was assayed using the LKBtide peptide as substrate ([Sakamoto et al., 2004]).
LKB1 was assayed using the LKBtide peptide as substrate as
described in the Star Methods section.

[4] = target: T3, AMPK-γ1 R299G (RG) complexes (Homo sapiens, UniProt P54619, R299G); experiment: Activation by LKB1 of FLAG-AMPK-γ1 R299G (RG) complexes precipitated from HeLa cells; format: biochemical; details: RG mutant γ1; AMP 200 μM or SU6656 3 μM, 10 min
T3 construct: Plasmid encoding full-length human AMPK-γ1; expressed in transfected cells; host or cells: HeLa
T3 sequence (P54619 whole entry R299G, one chain of several): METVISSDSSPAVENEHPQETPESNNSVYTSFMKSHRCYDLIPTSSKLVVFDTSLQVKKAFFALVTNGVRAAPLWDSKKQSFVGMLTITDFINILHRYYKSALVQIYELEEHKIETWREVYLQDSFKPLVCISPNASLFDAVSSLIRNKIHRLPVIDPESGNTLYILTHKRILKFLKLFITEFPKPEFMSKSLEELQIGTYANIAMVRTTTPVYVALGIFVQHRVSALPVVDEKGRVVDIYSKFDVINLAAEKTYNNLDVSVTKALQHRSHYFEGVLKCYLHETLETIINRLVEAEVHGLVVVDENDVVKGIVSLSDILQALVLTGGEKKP
Source text: (B) Effect of ATP concentration on kinase activity of α2-KD in the presence of increasing concentrations of SU6656. Results (mean, n = 2) were fitted to the equation Y= (Vmax × X)/(Km × (1 + I/Ki) + X), where Y is the activity, X is the ATP concentration, I is the concentration of SU6656, and Ki is the inhibitory constant for SU6656. […] (D and E) Effect of increasing concentrations of SU6656 on activity (D) and Thr172 phosphorylation (E) induced by LKB1 with unphosphorylated α2-KD (WT/AT mutant). Results in (D) are mean ± SEM (n = 3); and were fitted to same equation as Figure 4C. […] See also Figure S3. (F) Effect of AMP (2 mM) and SU6656 on inactivation of AMPK by PP2Cα in the presence of 5 mM ATP. […] (G) Effects of AMP or SU6656 on activation (top) and Thr172 phosphorylation (bottom) by LKB1 of AMPK-γ1 complexes expressed in HeLa cells. FLAG-tagged AMPK-γ1, either wild-type (WT) or R299G mutant (RG), was expressed in HeLa cells and AMPK complexes precipitated using anti-FLAG antibody. The complexes (which have low basal phosphorylation due to lack of LKB1 in HeLa cells) were incubated with or without a limiting amount of LKB1, AMP (200 μM) or SU6656 (3 μM) for 10 min and AMPK activity determined. […]

[5] = test system: Erk1/Erk2; experiment: Erk1/Erk2 phosphorylation in HEK293 cells (western blot); format: cell-based, human; details: SU6656 100 μM, PP2 100 nM
[6] = test system: AMPK; format: cell-based, mouse; details: SYF cells, 1 hr
Description: We next tested the effect of SU6656 in SYF cells, which are mouse embryo fibroblasts (MEFs) with null alleles for Src, Yes, and Fyn, the three Src kinases expressed in MEFs ([Klinghoffer et al., 1999]).
Top: AMPK activity (mean ± SEM, n = 4); bottom: western blots showing phosphorylation of Thr172 on AMPK, and of ERK1/2, in cells treated with DMSO (control), SU6656 (100 μM), or PP2 (100 nM) (n = 2). (B) As (A), but in SYF cells. (C) HeLa cells were transfected with DNAs encoding GFP alone, or GFP fused to WT, Y261F/Y365F (FF), or Y36F/Y261F/Y365F (FFF) mutants of LKB1; cells were treated with increasing concentrations of SU6656 for 1 hr and AMPK activity determined (mean ± SEM, n = 4). See also Figure S1. (D) HEK293 cells were transfected with DNAs encoding FLAG-tagged AMPK-α2 with or without a Y436F mutation. Cells were incubated with DMSO (control), 100 μM SU6656, 10 mM phenformin, or 10 μM A23187 for 1 hr; AMPK complexes were immunoprecipitated using anti-FLAG antibody and assayed. The top panels show kinase activities (mean ± SD, n = 3); the bottom panels show blots from the same experiment (n = 2). In all panels, asterisks indicate significant differences from DMSO controls; in (D), there were no significant differences between the WT and Y463F mutant. **p < 0.01, ****p < 0.0001. […]

[7] = test system: AMPK; experiment: AMPK activation in HeLa cells transfected with GFP-LKB1 WT, FF or FFF mutants; format: cell-based, human; details: HeLa cells expressing GFP-LKB1 WT, not with GFP control
Description: Top: AMPK activity (mean ± SEM, n = 4); bottom: western blots showing phosphorylation of Thr172 on AMPK, and of ERK1/2, in cells treated with DMSO (control), SU6656 (100 μM), or PP2 (100 nM) (n = 2). (B) As (A), but in SYF cells. (C) HeLa cells were transfected with DNAs encoding GFP alone, or GFP fused to WT, Y261F/Y365F (FF), or Y36F/Y261F/Y365F (FFF) mutants of LKB1; cells were treated with increasing concentrations of SU6656 for 1 hr and AMPK activity determined (mean ± SEM, n = 4). See also Figure S1. (D) HEK293 cells were transfected with DNAs encoding FLAG-tagged AMPK-α2 with or without a Y436F mutation. Cells were incubated with DMSO (control), 100 μM SU6656, 10 mM phenformin, or 10 μM A23187 for 1 hr; AMPK complexes were immunoprecipitated using anti-FLAG antibody and assayed. The top panels show kinase activities (mean ± SD, n = 3); the bottom panels show blots from the same experiment (n = 2). In all panels, asterisks indicate significant differences from DMSO controls; in (D), there were no significant differences between the WT and Y463F mutant. **p < 0.01, ****p < 0.0001.
We next transiently transfected DNAs encoding GFP, or GFP-tagged wild-type (WT), Y261F/Y365F (FF), or Y36F/Y261F/Y365F (FFF) mutants of LKB1 into HeLa cells, which lack endogenous LKB1.

[8] = test system: AMPK; set-up: method as in Bain et al., 2007; details: ref Bain et al., 2007; cited from earlier work
[9] = set-up: method as in Strumberg et al., 2007; details: human clinical trials; ref Strumberg et al., 2007; cited from earlier work

Row | SMILES | concentrations inhibiting both basal and AMP-stimulated activity [1] | IC50 ([2]; AT mutant α2-KD phosphorylated using CaMKK2, read-out: IC50 for inhibition of catalytic activity) | fold less potent inhibition with AT mutant than WT ([2]; AT versus WT α2-KD) | effect on LKB1 activity [3] | activation and Thr172 phosphorylation by LKB1 [4] | Erk1/Erk2 phosphorylation [5] | AMPK activity / Thr172 phosphorylation [6] | AMPK activation and Thr172 phosphorylation [7] | inhibition of AMPK relative to Src [8] | peak plasma sorafenib [9]
1 | CN(C)S(=O)(=O)c1ccc2c(c1)/C(=C/c1cc3c([nH]1)CCCC3)C(=O)N2 [SU6656] | above 1 μM | 1.7 ± 0.3 µM | ~10 fold | no effect | preserved | reduced phosphorylation of Erk1/Erk2 | still activated and increased Thr172 phosphorylation of AMPK | equally in cells expressing the WT, FF, or FFF mutants | inhibits AMPK as effectively as Src | –
2 | CNC(=O)c1cc(Oc2ccc(NC(=O)Nc3ccc(Cl)c(C(F)(F)F)c3)cc2)ccn1 [sorafenib] | – | – | – | – | – | – | – | – | – | 6 to 20 µM
